Data taken from patent EP4782453A1 (Beyang Therapeutics Co., Ltd., priority 2023, dated 2025).
pEC50, pIC50: −log10 of the molar value. Read-outs that look alike come from different tables or passages of the source.

How the values were obtained:
Menin-MLL = biological target: T1, Menin-MLL (Homo sapiens, UniProt O00255); assay: Inhibitory activity against Menin-MLL binding (fluorescence polarization); details: 150 nM His-Menin, 15 nM FITC-MLL, 25°C for 60 min
T1 construct: His-Menin (M1-L615 end); purchased BIORTUS BP9210
T1 sequence (O00255 1-615 isoform O00255-1): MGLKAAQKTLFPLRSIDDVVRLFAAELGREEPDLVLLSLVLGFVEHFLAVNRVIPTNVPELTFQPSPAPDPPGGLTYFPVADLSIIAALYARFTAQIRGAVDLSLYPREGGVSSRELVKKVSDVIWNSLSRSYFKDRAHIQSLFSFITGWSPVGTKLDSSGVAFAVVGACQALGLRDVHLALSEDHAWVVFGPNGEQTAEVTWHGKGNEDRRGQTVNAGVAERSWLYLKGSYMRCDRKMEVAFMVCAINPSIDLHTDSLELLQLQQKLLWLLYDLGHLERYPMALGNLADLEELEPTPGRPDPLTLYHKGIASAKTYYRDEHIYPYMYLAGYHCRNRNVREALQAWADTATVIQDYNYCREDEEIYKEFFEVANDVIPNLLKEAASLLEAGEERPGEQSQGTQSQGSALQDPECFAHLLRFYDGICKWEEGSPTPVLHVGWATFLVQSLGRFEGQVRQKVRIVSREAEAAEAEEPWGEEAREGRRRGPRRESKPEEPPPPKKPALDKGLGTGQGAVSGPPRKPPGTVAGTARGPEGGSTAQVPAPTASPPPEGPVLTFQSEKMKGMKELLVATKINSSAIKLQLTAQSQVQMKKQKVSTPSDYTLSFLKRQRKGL
In short: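 Fluorescence polarization competition: compound and 150 nM His-tagged menin (residues M1-L615) sit 15 min at 25 °C in pH 7.5 HEPES buffer with NaCl, DTT and BSA; 15 nM FITC-labelled MLL peptide then binds for 60 min. IC50 fitted sigmoidally from mP values, duplicate wells.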

MEIS1 gene expression [1] = assay: Inhibition of MEIS1 gene expression in human tumor cells (qRT-PCR), MOLM-13; assay type: cell-based; details: MOLM-13 (carrying MLL-AF9), 48 hours of incubation, relative MEIS1 gene expression vs GAPDH
From the text: (§1) Experimental Example 3: Evaluation of Inhibitory Activity of Compounds Against MEISI Gene Expression in Human Tumor Cells
(§2) The effect of test samples on MEIS1 gene expression in vitro cultured human leukemia cells MV-4-11 (carrying MLL-AF4), MOLM-13 (carrying MLL-AF9), and OCI-AML3 (carrying NPM1c) was studied.
(§3) • Human acute lymphoblastic leukemia cells MV-4-11, purchased from American Type Culture Collection, Catalog Number: CRL-9591; • Human acute myeloid leukemia cells MOLM-13, purchased from COBIOER BIOSCIENCES CO., LTD, Catalog Number: CBP60678; • Human acute myeloid leukemia cells OCI-AML3, purchased from COBIOER BIOSCIENCES CO., LTD, Catalog Number: CBP60817; • MEIS1 Primer/Probe, purchased from IDT, Catalog Number: 40831613; and • GAPDH Primer/Probe, purchased from IDT, Catalog Number: 22214836.
(§4) MV-4-11 cells were cultured in an IMDM medium containing 10% fetal bovine serum, or MOLM-13 and OCI-AML3 cells were cultured in an RPMI-1640 medium containing 20% fetal bovine serum, each supplemented with 100 U·mL^-1 penicillin and 100 µg·mL^-1 streptomycin. These cells were cultured at 37°C with 5% CO2. The suspensions of individual cell lines were prepared in their respective media and seeded into 48-well plates at a density of 100,000 cells/well. On the day of the experiment, a compound stock solution was diluted in a 6-fold gradient using DMSO. Each gradient-diluted stock solution was then further diluted 250-fold with a complete medium to prepare a series of working solutions at different concentrations. Next, 250 µL of working solution (containing the complete medium with a 2-fold serial concentration of the test compound or a positive control compound, or containing a control complete medium) was added to each well. After 48 hours of incubation, cells from the 48-well plate were collected into 1 mL centrifuge tubes, centrifuged at 1000 rpm for 5 minutes, and the complete medium was removed. Cells were washed twice with 1 mL PBS and centrifuged to remove PBS. Total RNA was extracted using the RNeasy Mini Kit (250) (QIAGEN, 74106). The threshold cycle (Ct) value for gene expression was determined using the HiScript II U+ One Step qRT-PCR Probe Kit (Vazyme) (Vazyme, Q223-01), with 3 replicates per sample. The prepared reaction mixture was placed in an ABI 7500 real-time PCR instrument, and the reaction proceeded following the procedures below. [formula]
(§5) Next, for the relative MEIS1 gene expression, the concentration (EC50) that inhibits 50% of relative MEIS1 gene expression was calculated using GraphPad Prism 8 software.

MEIS1 gene expression [2] = assay: Inhibition of MEIS1 gene expression in human tumor cells (qRT-PCR), MV-4-11; assay type: cell-based; details: MV4-11, MV-4-11 (carrying MLL-AF4), 48 hours of incubation, relative MEIS1 gene expression vs GAPDH, read-out: MV-4-11 MEISI EC50
From the text: as §1, §2, §3, §4, §5

[3] = system: MOLM-13 (carrying MLL-AF9); assay: Inhibition of proliferation of human tumor cells (Alamar Blue, 7 days), MOLM-13; assay type: cell-based; details: Homo sapiens, MOLM-13 cells (carrying MLL-AF9), method calls the value GI50
In short: (§6)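 Alamar Blue fluorescence at Day 7, normalised between 0.1% DMSO wells on Day 7 (high) and Day 0 (low), gives GI50. Cells grew with compound at 37°C, 5% CO2; seeding 4,000 cells/well for MV-4-11 and MOLM-13, 3,000 for KG-1a.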

[4] = system: MV-4-11 (carrying MLL-AF4); assay: Inhibition of proliferation of human tumor cells (Alamar Blue, 7 days), MV-4-11; assay type: cell-based; details: Homo sapiens, MV4-11, 168 h, MV-4-11 cells (carrying MLL-AF4), method calls the value GI50
In short: as §6

KG-1a (wild-type MLL) = assay: Inhibition of proliferation of human tumor cells (Alamar Blue, 7 days), KG-1a control cell line; assay type: cell-based; details: 168 h, KG-1a cells (wild-type MLL, control cell line), method calls the value GI50
From the text: Experimental Example 2: Evaluation of Inhibitory Activity of Compounds Against Proliferation of Human Tumor Cells
• Human acute lymphoblastic leukemia cells MV-4-11, purchased from American Type Culture Collection, Catalog Number: CRL-9591; • Human acute myeloid leukemia cells MOLM-13, purchased from COBIOER BIOSCIENCES CO., LTD, Catalog Number: CBP60678; • Human acute myeloid leukemia cells KG-1a, purchased from American Type Culture Collection, Catalog Number: CCL-246.1; • Inverted Microscope, purchased from Olympus Tokyo; • Countess™ Automated Cell Counter, purchased from Invitrogen, Model: C10281; and • Multilabel Reader, purchased from Bio-Tek, Model: Synergy HT.
MV-4-11 cells were cultured in an IMDM medium containing 10% fetal bovine serum, KG-a cells were cultured in an IMDM medium containing 20% fetal bovine serum, or MOLM-13 cells were cultured in an RPMI-1640 medium containing 20% fetal bovine serum, each supplemented with 100 U·mL^-1 penicillin and 100 µg·mL^-1 streptomycin. These cells were cultured at 37°C with 5% CO2. The suspensions of individual cell lines were prepared in their respective media and seeded into 96-well plates at a density of 4,000 cells/well for MV-4-11 and MOLM-13 cells, or 3,000 cells/well for KG-1a cells. On the day of the experiment, a compound stock solution was diluted in a 3-fold or 4-fold gradient using DMSO. Each gradient-diluted stock solution was then further diluted 250-fold with a complete medium to prepare a series of working solutions at different concentrations. Subsequently, 100 µL of working solution (containing a 2-fold concentration series of the test compound) was added to each well, with duplicate wells set up for each concentration.
Seven days after compound addition (on Day 7), an Alamar Blue assay reagent (MCE, HY-111391 / CS-0040317) was added to measure the fluorescence intensity in each well. Wells containing the cells in the growth medium supplemented with 0.1% DMSO (Day 7) served as high-read control wells. The readouts from the wells containing the cells in the growth medium supplemented with 0.1% DMSO on the day of compound addition (Day 0) served as low-reading control well. GraphPad Prism software was used to calculate the concentration required to inhibit 50% of cell proliferation (GI50), which serves as a cell proliferation inhibition activity index.

[5] = fluorescence polarization, read-out: Menin-MLL IC50
[6] = Menin-MLL IC50, fluorescence polarization

| Structure (SMILES) | pIC50 (Menin-MLL; [5]) | pEC50 (MEIS1 gene expression [1]) | pEC50 (MEIS1 gene expression [2]) | pIC50 ([3]; 168 h) | pIC50 [4] | pIC50 ([3]; MOLM-13, 168 h) | pIC50 (KG-1a (wild-type MLL)) | pIC50 (Menin-MLL; [6]) |
| --- | --- | --- | --- | --- | --- | --- | --- | --- |
| CC(=O)N1CCN(CCC[C@H](C(C)C)N2CC(c3cc(-c4ccc(F)cc4C(=O)N4CCOC[C@H]4C)c4c(F)nc(C)n4c3)C2)C(C)(C)C1 [Example 336] | 8.05 | 8.03 | 7.72 | – | – | – | – | – |
| CC(=O)N1CCN(CCC[C@H](C(C)C)N2CC(c3cc(-c4ccc(F)cc4C(=O)N4CCOC[C@H]4C)c4c(F)nc(C)n4c3)C2)[C@@H](C)C1 [Example 329] | 7.96 | 7.75 | 7.20 | – | – | – | – | – |
| CC(=O)N1CCC(CN2CC(c3cc(-c4ccc(F)cc4C(=O)N4CCC[C@H]4C)c4c(F)nc(C)n4c3)C2)CC1 [Example 189] | 7.48 | – | 7.05 | 7.36 | 7.54 | – | – | – |
| Cc1cncc2c(-c3ccc(F)cc3C(=O)N3CCOC[C@H]3C)cc(CC3CN(CC4CCOCC4)C3)n12 [Example 260] | 8.52 | – | 8.12 | – | 8.15 | 8.00 | – | – |
| Cc1nc(F)c2c(-c3ccc(F)cc3C(=O)N3CCOC[C@H]3C)cc(C3CN([C@H](CC[C@H]4CNCCO4)C(C)C)C3)cn12 [Example 244-1, (3R)-4-[5-fluoro-2-(1-fluoro-3-methyl-6-{1-[(3R)-4-methyl-1-[(2S)-morpholin-2-yl]pentan-3-yl]azacyclobutan-3-yl}imidazo[1,5-a]pyridin-8yl)benzoyl]-3-methylmorpholine] | 8.02 | – | – | 7.41 | 7.80 | – | 4.70 | – |
| COCC1CN(CCC[C@H](C(C)C)N2CC(c3cc(-c4ccc(F)cc4C(=O)N4CCOC[C@H]4C)c4c(F)nc(C)n4c3)C2)C1 [Example 203] | 8.48 | – | – | 8.25 | 8.68 | – | 4.70 | – |
| COCC1CN(CCC[C@H](C(C)C)N2CC(c3cc(-c4ccc(F)cc4C(=O)N4CCOC[C@H]4C)c4cnn(C)c4c3)C2)C1 [Example 183-2] | 7.93 | – | – | 7.41 | 8.10 | – | 4.96 | – |
| Cc1nc(F)c2c(-c3ccc(F)cc3C(=O)N3CCC[C@H]3C)cc(C3CN(C(C)C4CCOCC4)C3)cn12 (stereo partly drawn) [Example 188] | 7.92 | – | 7.38 | 7.57 | 8.04 | – | – | – |
| COCCN(C)CCCC(C(C)C)N1CC(c2cc(-c3ccc(F)cc3C(=O)N(CC(F)F)C(C)C)c3cnc(C)n3c2)C1 (stereo not drawn) [Example 149] | 8.07 | – | – | 8.08 | 8.68 | – | 5.28 | – |
| Cc1nc(F)c2c(-c3ccc(F)cc3C(=O)N3CCOC[C@H]3C)cc(C3CN([C@@H](CO[C@H]4CCCN(C)C4)C(C)C)C3)cn12 [Example 321-1, (3R)-4-[5-fluoro-2-(1-fluoro-3-methyl-6-{1-[(2R)-3-methyl-1-{[(3S)-1-methylpiperidin-3-yl]oxy}butan-2-yl]azacyclobutan-3-yl}imidazo[1,5-a]pyridin-8yl)benzoyl]-3-methylmorpholine] | 7.97 | – | 7.28 | 7.34 | 8.19 | – | – | – |
| CCN(C(=O)c1cc(F)ccc1-c1cc(C2CCN(C[C@H]3CC[C@H](NS(=O)(=O)CC)CC3)C2)cn2c(C)ncc12)C(C)C (mixture of isomers) [Example 30, N-ethyl-5-fluoro-2-[3-methyl-6-(1-{[(1r,4r)-4-ethanesulfonamidocyclohexyl]methyl}pyrrolidin-3-yl)imidazo[1,5-a]pyridin-8-yl]-N-(isopropyl)benzamide] | – | – | 7.70 | – | – | – | – | 8.22 |
| CCN(C(=O)c1cc(F)ccc1-c1cc([C@H]2CC[C@H](NCc3ccc(-c4cc(OC)c(OC)nn4)cc3)CC2)cn2cncc12)C(C)C [Example 18-2, N-ethyl-5-fluoro-N-(isopropyl)-2-{6-[(1r,4r)-4-({[4-(5,6-dimethoxypyridazin-3-yl)phenyl]methyl}amino)cyclohexyl]imidazo[1,5-a]pyridin-8-yl}benzamide] | – | – | – | – | 8.03 | 7.37 | 5.19 | 8.26 |
| Cc1cncc2c(-c3ccc(F)cc3C(=O)N3CCOC[C@H]3C)cc(CC3CN(CC4CCN(C(=O)C5CC5)CC4)C3)n12 [Example 286, (3R)-4-{2-[6-({1-[(1-cyclopropanecarbonylpiperidin-4-yl)methyl]azacyclobutan-3-yl}methyl)-4-methylpyrrolo[1,2-a]pyrazin-8-yl]-5-fluorobenzoyl}-3-methylmorpholine] | 8.46 | – | – | 7.72 | 8.34 | – | 4.70 | – |
